What all share (assay type): cell-based, human
In one data set the test system is CD53. In words: siRNA dose response, CD53 mRNA knockdown, bDNA Assay. The settings on record: THP-1, 24 hr. As to the method: (§1) Dose response curves for siRNAs were generated in vitro using a variety of cell lines according to Table 4.
(§2) Briefly, cells were seeded in 96-well plates and reverse transfected with siRNA, Lipofectamine® 2000 (0.5 uL/well; ThermoFisher), and, in some cases, a reporter plasmid (50 ng/well). The reporter plasmid (psiCHECK™-2, Promega) encoded both firefly luciferase and the gene of interest fused to renilla luciferase; silencing of the gene of interest results in proportional silencing of renilla luciferase but leaves firefly luciferase unaffected as an internal control.
(§3) After 24 hr incubation at 37° C., mRNA knockdown was measured using an endpoint assay. For targets without a reporter plasmid, a branched DNA (bDNA) assay was performed according to the manufacturer's instructions (QuantiGene® Singleplex Gene Expression Assay, ThermoFisher) to measure both the target gene and GAPDH (housekeeping gene) mRNA. Data are plotted as siRNA concentration (nM) vs. remaining mRNA (ratio of target gene to GAPDH, normalized to mock siRNA-transfected cells). For targets with a reporter plasmid, a Dual-Glo® Luciferase Assay was performed according to the manufacturer's instructions (Promega) to measure firefly and renilla luciferase expression. Data are plotted as siRNA concentration (nM) vs. remaining mRNA (ratio of renilla to firefly luminescence, normalized to mock siRNA-transfected cells).
(§4) For all dose response curves, a 4-parameter logistic model was applied to determine the IC50 of each siRNA sequence (Table 5 and FIG. 2). Data shown in Table 5 and FIG. 2 represent the mean of quadruplicates, +/−standard deviation.

The subject of another data set is LRRC25. In words: siRNA dose response, LRRC25 mRNA knockdown, Dual-Glo Luciferase Assay. The following applies: Hepa1-6 + reporter plasmid, 24 hr. On the procedure:
as §1, §2, §3, §4

In a further data set the test system is DOCK2. Description: siRNA dose response, DOCK2 mRNA knockdown, bDNA Assay. The settings on record: THP-1, 24 hr. As to the method: as §1, §2, §3, §4
The subject of a further data set is FERMT3. In words: siRNA dose response, FERMT3 mRNA knockdown, bDNA Assay. The settings on record: THP-1, 24 hr. As to the method: as §1, §2, §3, §4

pIC50: −log10 of the molar value.

This is an account of results in patent publication US20210189342A1, “COMPOSITIONS AND METHODS FOR MODULATING MONOCYTE AND MACROPHAGE INFLAMMATORY PHENOTYPES AND IMMUNOTHERAPY USES THEREOF” (Verseau Therapeutics, Inc., priority 2018, published 2021).

Turning to “XD-09201: siRNA targeting CD53 (sense 5'-gcAuGAGuAGcuugAAAcudTsdT-3'; antisense 5'-AGUUUcAAGCuACUcAUGCdTsdT-3'; as printed in the source, key not given here)”, the pIC50 (as a rule, −log10 of the IC50, conventionally taken in molar units) with CD53 was 10.17.
For “XD-09203: siRNA targeting CD53 (sense 5'-gcAuGGGcucuAucAAGGAdTsdT-3'; antisense 5'-UCCUUGAuAGAGCCcAUGCdTsdT-3'; as printed in the source, key not given here)”, the pIC50 with CD53 was 9.75.
In the case of “XD-09205: siRNA targeting CD53 (sense 5'-acuAAuAucuGAGcAucuudTsdT-3'; antisense 5'-AAGAUGCUcAGAuAUuAGUdTsdT-3'; as printed in the source, key not given here)”, the pIC50 in the data set with CD53 was 9.88.
Still for that read-out and setting: next, “XD-09207: siRNA targeting CD53 (sense 5'-agGGcAAGAucucauuucAdTsdT-3'; antisense 5'-UGAAAUGAGAUCUUGCCCUdTsdT-3'; as printed in the source, key not given here)”: 10.42.
Regarding “XD-09208: siRNA targeting CD53 (sense 5'-uuuAuuAGAGGGccuuAuudTsdT-3'; antisense 5'-AAuAAGGCCCUCuAAuAAAdTsdT-3'; as printed in the source, key not given here)”, the pIC50 in the data set with CD53 was 9.79.
The same measure, in the same setting: as for “XD-09209: siRNA targeting CD53 (sense 5'-auuGAuGuGuucuaAGucudTsdT-3'; antisense 5'-AGACUuAGAAcAcAUcAAUdTsdT-3'; as printed in the source, key not given here)”, the figure is 10.39.
“XD-09250: siRNA targeting LRRC25 (sense 5'-gccAGAGGAAcGccAGcGAdTsdT-3'; antisense 5'-UCGCUGGCGUUCCUCUGGCdTsdT-3'; as printed in the source, key not given here)”: the pIC50 in the data set with LRRC25 is 7.82.
The same measure, in the same setting: next, “XD-09251: siRNA targeting LRRC25 (sense 5'-gccGucGcuuuuccAGcAudTsdT-3'; antisense 5'-AUGCUGGAAAAGCGACGGCdTsdT-3'; RNA with 2'-O-methyl and phosphorothioate modifications, case key not given here, as printed in the source, key not given here)”: 8.56; “XD-09256: siRNA targeting LRRC25 (sense 5'-ccGAcuAuGAGAAcAuGuudTsdT-3'; antisense 5'-AAcAUGUUCUcAuAGUCGGdTsdT-3'; as printed in the source, key not given here)”: 9.22.
On the same count and under the same terms, next, “XD-09258: siRNA targeting LRRC25 (sense 5'-caAuAAAuGcuucgAGGcudTsdT-3'; antisense 5'-AGCCUCGAAGcAUUuAUUGdTsdT-3'; RNA with 2'-O-methyl and phosphorothioate modifications, case key not given here, as printed in the source, key not given here)”: 10.48; “XD-09259: siRNA targeting LRRC25 (sense 5'-cuucGAGGcuGAugAGGcudTsdT-3'; antisense 5'-AGCCUcAUcAGCCUCGAAGdTsdT-3'; RNA with 2'-O-methyl and phosphorothioate modifications, case key not given here, as printed in the source, key not given here)”: 9.53.
The substance “XD-09691: siRNA targeting DOCK2 (sense 5'-ggGGAuAccucAuaAAGcAdTsdT-3'; antisense 5'-UGCUUuAUGAGGuAUCCCCdTsdT-3'; RNA with 2'-O-methyl and phosphorothioate modifications, case key not given here, as printed in the source, key not given here)” had a pIC50 in the data set on DOCK2 of 7.93.
“XD-09694: siRNA targeting DOCK2 (sense 5'-ccAucuGcGAuucauGuuudTsdT-3'; antisense 5'-AAAcAUGAAUCGcAGAUGGdTsdT-3'; RNA with 2'-O-methyl and phosphorothioate modifications, case key not given here, as printed in the source, key not given here)”: in the data set with DOCK2, the pIC50 was 9.39.
Same read-out and setting: next, “XD-09696: siRNA targeting DOCK2 (sense 5'-cucAuuGcAGAccgGAAAudTsdT-3'; antisense 5'-AUUUCCGGUCUGcAAUGAGdTsdT-3'; RNA with 2'-O-methyl and phosphorothioate modifications, case key not given here, as printed in the source, key not given here)”: 8.75; “XD-09697: siRNA targeting DOCK2 (sense 5'-accGGAAAuuucAgcAuuudTsdT-3'; antisense 5'-AAAUGCUGAAAUUUCCGGUdTsdT-3'; RNA with 2'-O-methyl and phosphorothioate modifications, case key not given here, as printed in the source, key not given here)”: 9.25; “XD-09698: siRNA targeting DOCK2 (sense 5'-ggucGAGGAcAuuauuuucdTsdT-3'; antisense 5'-GAAAAuAAUGUCCUCGACCdTsdT-3'; as printed in the source, key not given here)”: 8.87.
Take “XD-09701: siRNA targeting FERMT3 (sense 5'-ggcuGcGcuucAAguAcuAdTsdT-3'; antisense 5'-uAGuACUUGAAGCGcAGCCdTsdT-3'; RNA with 2'-O-methyl and phosphorothioate modifications, case key not given here, as printed in the source, key not given here)”: the pIC50 in the data set on FERMT3 is 9.04.
In the data set with FERMT3, “XD-09705: siRNA targeting FERMT3 (sense 5'-guucccGAuGuuAacGucudTsdT-3'; antisense 5'-AGACGUuAAcAUCGGGAACdTsdT-3'; RNA with 2'-O-methyl and phosphorothioate modifications, case key not given here, as printed in the source, key not given here)” gave a pIC50 of 8.17.
The same measure, in the same setting: next, “XD-09708: siRNA targeting FERMT3 (sense 5'-gcuGccGAAuuGuacAcGAdTsdT-3'; antisense 5'-UCGUGuAcAAUUCGGcAGCdTsdT-3'; RNA with 2'-O-methyl and phosphorothioate modifications, case key not given here, as printed in the source, key not given here)”: 10.92; “XD-09709: siRNA targeting FERMT3 (sense 5'-guAGcuAcAGGAugAuGAAdTsdT-3'; antisense 5'-UUcAUcAUCCUGuAGCuACdTsdT-3'; RNA with 2'-O-methyl and phosphorothioate modifications, case key not given here, as printed in the source, key not given here)”: 10.32.
